Data: article PMC3296825 (Nature medicine, 2012)

Experiments:
[1] = target: fast skeletal troponin complex (Oryctolagus cuniculus, UniProt P02586+P02643); experiment: isothermal titration calorimetry; assay type: binding
slow skeletal troponin = slow skeletal troponin (Bos taurus, UniProt G3MYN5+P63315); experiment: isothermal titration calorimetry; assay type: binding

Chain of fast skeletal troponin complex (P02586 2-160): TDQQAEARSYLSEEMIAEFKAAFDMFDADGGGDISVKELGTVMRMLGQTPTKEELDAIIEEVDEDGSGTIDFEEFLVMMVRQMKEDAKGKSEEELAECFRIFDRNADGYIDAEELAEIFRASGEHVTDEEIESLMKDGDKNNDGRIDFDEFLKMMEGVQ
Chain of fast skeletal troponin complex (P02643 2-182): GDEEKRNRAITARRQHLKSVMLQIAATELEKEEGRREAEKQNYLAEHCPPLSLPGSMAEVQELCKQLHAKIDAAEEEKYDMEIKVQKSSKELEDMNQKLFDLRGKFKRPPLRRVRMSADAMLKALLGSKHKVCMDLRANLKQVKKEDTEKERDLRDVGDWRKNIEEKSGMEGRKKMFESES
Chain of fast skeletal troponin complex (P02641 2-279 partner): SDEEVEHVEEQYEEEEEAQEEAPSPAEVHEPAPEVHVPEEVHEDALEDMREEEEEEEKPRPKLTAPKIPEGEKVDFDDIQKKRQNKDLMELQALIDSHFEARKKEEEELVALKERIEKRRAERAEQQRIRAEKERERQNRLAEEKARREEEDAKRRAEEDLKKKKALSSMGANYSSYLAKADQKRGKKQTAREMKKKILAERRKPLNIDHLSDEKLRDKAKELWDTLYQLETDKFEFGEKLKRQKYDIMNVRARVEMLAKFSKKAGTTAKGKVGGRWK

C#Cc1cnc2nc(O)n(C(CC)CC)c2n1 [CK-2017357]
Kd [1]: 40 ± 6 nM | Kd (slow skeletal troponin): 3800 ± 700 nM
